Laboratory results reported in patent US5399691A, “Substituted benzoylurea derivatives or their salts” (Ishihara Sangyo Kaisha Ltd., priority 1991, dated 1995).
Values after ≈ are worked out from the molar mass of the structure shown. Structures can show the parent of a compound that is named as a salt. Where two headings read alike, the source gives them in different places.

Key:
Acute toxicity = type: in vivo; conditions: mouse, in vivo; BDF1 mice, intravenous, Formulation Example 1; read-out: acute toxicity value (LD 50)
Experimental: (§1) None of BDF1 mice were dead by intravenously administering each formulation of Compound Nos. 1 to 9, 20, 49 and 53 of the present invention prepared in accordance with Formulation Example 1 in an amount of 25 mg/kg mouse (on the basis of compound).
(§2) 0.125 part by weight of the above mentioned Compound No. 1 was dissolved in 5 parts by weight of N,N-dimethylacetamide and 5 parts by weight of polyoxyethylene sorbitan monooleate, and 90 parts by weight of physiological saline was added thereto to form a solution formulation in an agate mortar.

P-388 leukemia = assay: Antitumor activity against P-388 leukemia, increase life span (Test Example 1); type: in vivo, BDF1 mouse (murine); conditions: days 1, 5 and 9
Description: The compounds of the present invention are effective against experimental murine tumors such as P-388 leukemia, L-1210 leukemia, B-16 melanoma, M-5076 sarcoma, Colon 38, Colon 26 and Lewis lung carcinoma. On the other hand, certain in vivo test systems and protocols have been developed by National Cancer Institute for testing compounds to determine the effectiveness of test compounds as antineoplastic agents. These have been reported in "Cancer Chemotherapy Reports", Part III, Vol. 3, No. 2 (1972) written by Deran, Greenberg, MacDonald, Schumacher and Abott. P-388 leukemia is the most standard experimental murine tumor, and it is known that many of drugs effective against human tumor are also effective against this leukemia. Generally, the effectiveness of a drug for these experimental murine tumors is evaluated by the extended median survival time of a test mouse group to which a test drug is administered on the basis of the median survival time of a control mouse group to which no drug is administered. If the extended median survival time is at least 25-30% longer, the administered drug is determined to be effective.
1×10^6 of P-388 leukemia cells per mouse were intraperitoneally transplanted into BDF1 mouse. Each formulation was intraperitoneally or intravenously administered on the 1st, 5th and 9th days after the transplantation.
The increase life span of each group was determined by comparing the median survival time (days) of a test group to which a test drug is administered and the median survival time (days) of a control group to which physiological saline was administered at the same part as in the case of the test group. Among the tested drug formulations, the compounds of the present invention were formulated in accordance with the below-mentioned Formulation Example 1, and the comparative compounds as shown in Table 8 were formulated in accordance with the below-mentioned Formulation Example 2.
(Note) * Increase life span is calculated by the following equation:
as §2, with “Increase life span % (ILS)=(a/b×100)-100 a: Median survival days of test group of drug administration b: Median survival days of control group of physiological saline administration 0.125” for “0.125”
0.125 part by weight of Comparative Compound No. 1 was dissolved in 5 parts by weight of N,N-dimethylacetamide and 5 parts by weight of polyoxyethylene sorbitan monooleate, and 90 parts by weight of physiological saline was added thereto to form a suspension formulation in an agate mortar.

[1] = Solubility in water-soluble solvent by HPLC (Test Example 2); type: physicochemical
Experimental: About 2 mg of each of the compounds of the present invention shown in the following Table 7 was accurately weighed, and was completely dissolved in 2 ml of N,N-dimethylacetamide. The content was then transferred into a 10 ml-measuring flask, and its volume was made constant with acetonitrile. 3 ml of the resultant solution was placed in a 50 ml-measuring flask, and its volume was adjusted constant with acetonitrile to prepare a standard solution. Next, about 2 mg of each of the compounds of the present invention was weighed, and was placed in an agate mortar. Thereafter, 1.5 ml of a test liquid (water-soluble solvent) was added thereto, and the content was mixed for 5 minutes. A suspension thus obtained, was transferred into a 1.5 ml-microtube, and was centrifuged at 15,000 r.p.m. for 10 minutes. The supernatant fluid was placed in a 1 ml-microtube, and was centrifuged again under the same conditions. 0.1 ml of the supernatant fluid thus obtained was diluted with 0.9 ml of acetonitrile to prepare a measuring liquid. The above standard solution and the measuring liquid were analyzed by high pressure liquid chromatography (HPLC), and their solubilities were measured by absolute calibration curve method.
Column: Nucleosil 5 C18, diameter=4.6 mm, length=250 mm
Mobile phase: acetonitrile/water/acetic acid=60/40/0.1
Detection: UV 265 nm, Column temperature: 40° C.,
Sensitivity: 0.005 AUFS or 0.16 AUFS,

BDF1 mice = assay: Acute toxicity; type: in vivo; conditions: intravenous, 25 mg/kg mouse, Formulation Example 1
Experimental: as §1, §2

[2] = Mus musculus, P388, intravenous
[3] = Mus musculus, P388, intravenous, 12.5 mg/kg
[4] = Mus musculus, P388, intravenous, 25 mg/kg
[5] = 10% peg 400 aqueous, organic solvent or mixture, 10% polyethylene glycol #400 aqueous solution, read-out: Solubility, test solution C
[6] = distilled water, water, read-out: Solubility, test solution A
[7] = physiological saline, read-out: Solubility, test solution B
[8] = Mus musculus, P388, ip, intraperitoneal
[9] = Mus musculus, P388, ip, intraperitoneal, 12.5 mg/kg
[10] = Mus musculus, P388, ip, intraperitoneal, 25 mg/kg

Structure (SMILES)	LD50 (Acute toxicity) [mg/kg]	ILS at 6.25 mg/kg (P-388 leukemia; [2]) [%]	ILS at 12.5 mg/kg (P-388 leukemia; [3]) [%]	ILS at 25 mg/kg (P-388 leukemia; [4]) [%]	solubility [1, 5] [µg/mL]	solubility [1, 6] [µg/mL]	solubility [1, 7] [µg/mL]	ILS at 6.25 mg/kg (P-388 leukemia; [8]) [%]	ILS at 12.5 mg/kg (P-388 leukemia; [9]) [%]	Increase life span (ILS %) (P-388 leukemia; intraperitoneal, 25 mg/kg)	ILS at 25 mg/kg (P-388 leukemia; [10]) [%]	Increase life span (ILS %) (P-388 leukemia; intraperitoneal, 12.5 mg/kg)	BDF1 mice dead (BDF1 mice)	ILS at 10 mg/kg (P-388 leukemia; Mus musculus, P388, intravenous, 10 mg/kg (footnote d)) [%]	ILS at 20 mg/kg (P-388 leukemia; Mus musculus, P388, intravenous, 20 mg/kg (footnote c)) [%]
NCC(=O)Nc1ccccc1C(=O)NC(=O)Nc1ccc(Oc2ncc(Br)cn2)c(Cl)c1 [Compound No. 1, N-[4-(5-bromo-2-pyrimidinyloxy)-3-chlorophenyl]-N'-(2-glycylamino)benzoylurea hydrochloride]	≥ 25	12	79	219	2100	1200	50								
CN(C)CC(=O)Nc1ccccc1C(=O)NC(=O)Nc1ccc(Oc2ncc(Br)cn2)c(Cl)c1 [Compound No. 2, N-[4-(5-bromo-2-pyrimidinyloxy)-3-chlorophenyl]-N'-[2-(N,N-dimethylglycyl)amino]benzoylurea hydrochloride]	≥ 25	24	51	143	> 4000	2500	550								
C[C@H](N)C(=O)Nc1ccccc1C(=O)NC(=O)Nc1ccc(Oc2ncc(Br)cn2)c(Cl)c1 [Compound No. 3]	≥ 25	10	70	134	3700 (≈ 6.93 mM)	2800 (≈ 5.25 mM)	320 (≈ 0.6 mM)								
C[C@@H](N)C(=O)Nc1ccccc1C(=O)NC(=O)Nc1ccc(Oc2ncc(Br)cn2)c(Cl)c1 [Compound No. 4]	≥ 25		19	95	2700 (≈ 5.06 mM)	2000 (≈ 3.75 mM)	140 (≈ 0.262 mM)								
CSCC[C@H](N)C(=O)Nc1ccccc1C(=O)NC(=O)Nc1ccc(Oc2ncc(Br)cn2)c(Cl)c1 [Compound No. 5]	≥ 25		3	152	2000 (≈ 3.37 mM)	1200 (≈ 2.02 mM)	30 (≈ 0.0505 mM)								
Cc1cc(NC(=O)NC(=O)c2ccccc2NC(=O)CN)ccc1Oc1ncc(Br)cn1 [Compound No. 7, N-[4-(5-bromo-2-pyrimidinyloxy)-3-methylphenyl]-N'-(2-glycylamino)benzoylurea]	≥ 25	50	105	143	3900 (≈ 7.81 mM)	> 2300	380 (≈ 0.761 mM)								
Nc1ccccc1C(=O)NC(=O)Nc1ccc(Oc2ncc(Br)cn2)c(Cl)c1 [compound 1, reference compound]					< 0.05	< 0.05	0.06 (≈ 0.00013 mM)	50	107	Tox					
Cc1cc(NC(=O)NC(=O)c2ccccc2N)ccc1Oc1ncc(Cl)cn1 [compound 2, reference compound]						0.8 (≈ 0.00201 mM)		34	83		148				
CCc1cc(NC(=O)NC(=O)c2ccccc2N)ccc1Oc1ncc(Br)cn1 [compound 3, reference compound]						< 0.1		26	26		99				
Nc1ccccc1C(=O)NC(=O)Nc1ccc(Oc2ncc(Cl)cn2)c(C(F)(F)F)c1 [compound 4, reference compound]						0.4 (≈ 0.000885 mM)		71		Tox		Tox			
NCC(=O)Nc1ccccc1C(=O)NC(=O)Nc1ccc(Oc2ncc(Cl)cn2)c(C(F)(F)F)c1 [compound 6]	≥ 25	60	138		1900 (≈ 3.73 mM)	1400 (≈ 2.75 mM)	70 (≈ 0.138 mM)								
NCC(=O)NCC(=O)Nc1ccccc1C(=O)NC(=O)Nc1ccc(Oc2ncc(Br)cn2)c(Cl)c1 [compound 8]	≥ 25		90	243	2100 (≈ 3.64 mM)	1800 (≈ 3.12 mM)	70 (≈ 0.121 mM)								
NCC(=O)Nc1ccccc1C(=O)NC(=O)Nc1ccc(Oc2ncc(Cl)cn2)c(Cl)c1 [compound 9]	≥ 25	19	86	152	1500 (≈ 3.16 mM)	1600 (≈ 3.37 mM)	160 (≈ 0.337 mM)								
Cc1cc(NC(=O)NC(=O)c2ccccc2NC(=O)CN(C)C)ccc1Oc1ncc(Br)cn1 [compound 20, N-[4-(5-bromo-2-pyrimidinyloxy)-3-methylphenyl]-N'-[2-(N,N-dimethylglycyl)amino]benzoylurea]	≥ 25		36	155	20000 (≈ 37.9 mM)	19000 (≈ 36 mM)	3000 (≈ 5.69 mM)						None		
Cc1cc(NC(=O)NC(=O)c2ccccc2NC(=O)[C@H](C)N)ccc1Oc1ncc(Br)cn1 [compound 49]	≥ 25	14	76	190	9800 (≈ 19.1 mM)	7600 (≈ 14.8 mM)	1800 (≈ 3.51 mM)						None		
CNCC(=O)Nc1ccccc1C(=O)NC(=O)Nc1ccc(Oc2ncc(Br)cn2)c(C)c1 [compound 53, N-[4-(5-bromo-2-pyrimidinyloxy)-3-methylphenyl]-N'-(2-sarcosylamino)benzoylurea]	≥ 25					5000 (≈ 9.74 mM)	120 (≈ 0.234 mM)						None	> 30	> 50
